From ChEMBL document CHEMBL1811826, “Structure-activity relationship and docking studies of thiazolidinedione-type compounds with monoamine oxidase B” (Bioorg Med Chem Lett, 2011)
Activity calls are given as the source filed them. The rule behind the calls is not given here.

Assays:
[1] = biological target: T1, Amine oxidase [flavin-containing] B (Homo sapiens, UniProt P27338); experiment: Inhibition of human recombinant MAOB by amplex red assay
T1 sequence (P27338 whole entry): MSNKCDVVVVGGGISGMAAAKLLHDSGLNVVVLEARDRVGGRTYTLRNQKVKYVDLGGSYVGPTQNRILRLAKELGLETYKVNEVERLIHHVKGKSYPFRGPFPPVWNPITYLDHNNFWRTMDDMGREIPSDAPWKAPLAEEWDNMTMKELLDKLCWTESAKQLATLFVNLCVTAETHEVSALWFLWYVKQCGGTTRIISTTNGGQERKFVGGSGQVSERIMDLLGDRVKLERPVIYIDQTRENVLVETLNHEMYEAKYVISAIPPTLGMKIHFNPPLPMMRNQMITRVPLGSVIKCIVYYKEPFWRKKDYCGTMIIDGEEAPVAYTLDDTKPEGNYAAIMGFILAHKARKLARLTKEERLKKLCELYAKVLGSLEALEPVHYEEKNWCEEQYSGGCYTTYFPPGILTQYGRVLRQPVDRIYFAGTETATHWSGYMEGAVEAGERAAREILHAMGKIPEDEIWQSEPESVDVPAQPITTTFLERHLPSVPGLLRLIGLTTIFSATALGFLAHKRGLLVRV

[2] = biological target: T2, Amine oxidase [flavin-containing] A (Homo sapiens, UniProt P21397); experiment: Inhibition of human recombinant MAOA assessed as inhibition of kynuramine conversion to fluorescent metabolite 4-hydroxyquinoline by fluorimetry
T2 sequence (P21397 whole entry): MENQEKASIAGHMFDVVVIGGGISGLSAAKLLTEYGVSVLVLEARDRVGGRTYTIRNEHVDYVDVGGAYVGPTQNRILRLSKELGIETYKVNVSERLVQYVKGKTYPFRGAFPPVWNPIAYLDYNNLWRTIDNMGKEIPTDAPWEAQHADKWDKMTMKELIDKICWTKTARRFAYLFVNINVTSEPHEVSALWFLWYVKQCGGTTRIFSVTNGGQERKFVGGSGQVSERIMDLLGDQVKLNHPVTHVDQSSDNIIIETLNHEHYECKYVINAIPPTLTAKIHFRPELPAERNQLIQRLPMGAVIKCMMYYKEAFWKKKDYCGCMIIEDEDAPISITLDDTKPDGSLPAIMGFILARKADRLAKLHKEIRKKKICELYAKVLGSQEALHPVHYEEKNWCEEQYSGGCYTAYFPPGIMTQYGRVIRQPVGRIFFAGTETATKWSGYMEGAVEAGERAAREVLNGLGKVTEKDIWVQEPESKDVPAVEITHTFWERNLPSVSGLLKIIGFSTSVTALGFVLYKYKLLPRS

Mus musculus [3] = experiment: Toxicity in C57BL/6 mouse assessed as striatal dopamine level at 10 mg/kg, sc measured after 7 days by HPLC method; assay type: organism-based; set-up: dose 10 mg/kg, route subcutaneous; settings: in vivo, 168 h
Mus musculus [4] = experiment: Neuroprotective activity in MPTP-stimulated C57BL/6 mouse assessed as increase in striatal dopamine content at 10 mg/kg, sc administered 1 hr before MPTP challenge measured after 7 days by HPLC method; assay type: functional, organism-based; set-up: dose 10 mg/kg

Row | SMILES | IC50 [1] | IC50 [2] | Activity (Mus musculus [3]) | Activity (Mus musculus [4])
1 | O=C1NC(=O)/C(=N\c2ccc(C(=O)O)cc2)S1 | 56 µM | 37.3 µM | – | –
2 | CN(C)c1ccc(/C=C2\SC(=O)N(CCN)C2=O)cc1 | – | 6.88 µM | – | –
3 | N=C1NC(=O)C(Cc2ccccc2)S1 (stereo unspecified) | 24.1 µM | – | – | –
4 | O=C1NC(=O)/C(=C\c2ccncc2)S1 | – | 13 µM | – | –
5 | O=C1NC(=O)/C(=C/c2ccc3nccnc3c2)S1 | – | 166 µM | – | –
6 | COc1cc(/C=C2\SC(=S)NC2=O)ccc1O | 2.49 µM | 28.6 µM | – | –
7 | CC(=O)c1ccc(CC2SC(=N)NC2=O)cc1 (stereo unspecified) | 309 µM | 252 µM | – | –
8 | O=C(/C=C1/SC(=O)NC1=O)Nc1ccccc1 | 22 µM | 35.3 µM | – | –
9 | COc1ccccc1/C=C1\SC(=O)N(CCN)C1=O | – | 29.8 µM | – | –
10 | O=C1NC(=O)/C(=C\c2cc(Br)c(O)c(Br)c2)S1 | 1.02 µM | 39.9 µM | – | –
11 | O=C1NC(=O)C(Cc2ccc(O)cc2)S1 (stereo unspecified) [GLITAZONE] | 225 µM | 194 µM | – | –
12 | Cc1cc(CC2SC(=O)NC2=O)cc(C)c1O (stereo unspecified) | 16.1 µM | 26.2 µM | – | –
13 | O=C(O)C(Cc1ccc(O)cc1)N1C(=O)CSC1=S (stereo unspecified) | 273 µM | – | – | –
14 | COc1cc(/C=C2/SC(=S)NC2=O)c(OC)cc1O | 31.6 µM | 380 µM | – | –
15 | Cc1cc(C)cc(CC2SC(=O)NC2=O)c1 (stereo unspecified) | – | 50.5 µM | – | –
16 | O=C(O)CCN1C(=O)/C(=C\c2ccccc2)SC1=S | 604 µM | 70.5 µM | – | –
17 | CC(C)(C)c1cc(CC2SC(=O)N=C2O)cc(C(C)(C)C)c1O (stereo unspecified) | 2.38 µM | – | Non-toxic | Active
18 | CN1C(=O)/C(=C\c2ccccc2)SC1=S | 10.5 µM | 0.52 µM | – | –
19 | CN1C(=O)/C(=C\c2ccc(Cl)cc2)SC1=S | 36.5 µM | 399 µM | – | –
20 | O=C1NC(=O)/C(=C\c2cccc(Br)c2)S1 | 6.07 µM | 67.3 µM | – | –
21 | O=C(/C=C1/SC(=O)NC1=O)Nc1cccc(O)c1 | 11 µM | 35.3 µM | – | –
22 | O=C1NC(=S)S/C1=C/c1ccncc1 | – | 21.8 µM | – | –
23 | N#CCCN1C(=O)S/C(=C\c2ccccc2)C1=O | – | 3.49 µM | – | –
24 | CCCN1C(=O)/C(=C\c2ccncc2)SC1=S | 0.8 µM | 10.6 µM | – | –
25 | CCOc1ccc(/C=C2\SC(=O)N(CCN)C2=O)cc1 | – | 1.04 µM | – | –
